Measurements taken from ChEMBL document CHEMBL4477229, “Design and Characterization of Superpotent Bivalent Ligands Targeting Oxytocin Receptor Dimers via a Channel-Like Structure” (J Med Chem, 2016).
Positions count from the first letter of the chain named. Calls of active or inactive are those of the source. The calls are words filed in the database; no cut-off is given here. Numbered stars: 1 amine (or outer) side, 2 acyl side, 3 side chain; on linkers, the order of the positions; unused ones are H or OH. Bridge positions count the residues as written; N and C are the ends. Square brackets hold non-standard residues; d marks the D form. Peptide text beside a SMILES is read from it. I, II: the chains in the order shown. * marks the point of attachment. Sebacoyl = O=C(CCCCCCCCC(=O)[*:2])[*:1]; C12 diacid = O=C(O)CCCCCCCCCCC(=O)*; Adipoyl = O=C(CCCCC(=O)[*:2])[*:1]; Mpa = O=C(O)CCS

What was measured:
Oxytocin receptor [1] = biological target: T1, Oxytocin receptor (Homo sapiens, UniProt P30559); assay: (§1) Agonist activity at human oxytocin receptor expressed in HEK293 cells coexpressing Rluc8-tagged Galphaq, N-terminal GFP-tagged Ggamma2 and Gbeta1 protein incubated for 2 mins in presence of TMH1-TAT peptide by Gq protein activation based BRET assay; format: cell-based
T1 sequence (P30559 whole entry): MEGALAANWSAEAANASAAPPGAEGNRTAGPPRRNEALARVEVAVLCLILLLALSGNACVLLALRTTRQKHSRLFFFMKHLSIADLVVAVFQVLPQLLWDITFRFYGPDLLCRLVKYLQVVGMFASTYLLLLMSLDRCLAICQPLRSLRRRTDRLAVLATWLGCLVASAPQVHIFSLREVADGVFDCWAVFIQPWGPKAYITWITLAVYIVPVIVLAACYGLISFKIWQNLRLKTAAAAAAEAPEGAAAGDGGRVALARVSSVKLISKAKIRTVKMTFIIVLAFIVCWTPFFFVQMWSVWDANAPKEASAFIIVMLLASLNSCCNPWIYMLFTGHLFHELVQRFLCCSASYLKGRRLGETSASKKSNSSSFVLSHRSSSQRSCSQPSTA

[2] = biological target: T2, Oxytocin receptor (Homo sapiens) (UniProt P30559); assay: as §1; format: cell-based; parameters: unit not given here
T2 sequence (whole entry): T1 sequence (P30559 whole entry)

[3] = tested on: T3, Oxytocin receptor (Homo sapiens), P30559 [V43A,C47A]; assay: (§2) Agonist activity at human oxytocin receptor V43A/C47A double mutant expressed in HEK293 cells coexpressing Rluc8-tagged Galphaq, N-terminal GFP-tagged Ggamma2 and Gbeta1 protein incubated for 2 mins by Gq protein activation based BRET assay; format: cell-based; parameters: unit not given here
T3 sequence (whole entry): T1 sequence (P30559 whole entry) with V43A, C47A

Oxytocin receptor [4] = biological target: Oxytocin receptor (Homo sapiens, UniProt P30559, C47A/V43A); assay: as §2; format: cell-based
[5] = tested on: T4, Oxytocin receptor (Homo sapiens), P30559 [C47A]; assay: (§3) Agonist activity at human oxytocin receptor C47A mutant expressed in HEK293 cells coexpressing Rluc8-tagged Galphaq, N-terminal GFP-tagged Ggamma2 and Gbeta1 protein incubated for 2 mins by Gq protein activation based BRET assay; format: cell-based; parameters: unit not given here
T4 sequence (whole entry): T1 sequence (P30559 whole entry) with C47A

Oxytocin receptor [6] = biological target: T5, Oxytocin receptor (Homo sapiens, UniProt P30559, C47A); assay: as §3; format: cell-based
[7] = biological target: T2, Oxytocin receptor (Homo sapiens); assay: (§4) Agonist activity at human oxytocin receptor expressed in HEK293 cells coexpressing Rluc8-tagged Galphaq, N-terminal GFP-tagged Ggamma2 and Gbeta1 protein incubated for 2 mins by Gq protein activation based BRET assay; format: cell-based; parameters: unit not given here
Oxytocin receptor [8] = biological target: T1, Oxytocin receptor; assay: Agonist activity at human oxytocin receptor low affinity site expressed in HEK293 cells coexpressing Rluc8-tagged Galphaq, N-terminal GFP-tagged Ggamma2 and Gbeta1 protein incubated for 2 mins in presence of TMH5-TAT peptide by Gq protein activation based BRET assay; format: cell-based
Oxytocin receptor [9] = biological target: T1, Oxytocin receptor; assay: Agonist activity at human oxytocin receptor low affinity site expressed in HEK293 cells coexpressing Rluc8-tagged Galphaq, N-terminal GFP-tagged Ggamma2 and Gbeta1 protein incubated for 2 mins by Gq protein activation based BRET assay; format: cell-based
Oxytocin receptor [10] = biological target: T1, Oxytocin receptor; assay: Agonist activity at human oxytocin receptor high affinity site expressed in HEK293 cells coexpressing Rluc8-tagged Galphaq, N-terminal GFP-tagged Ggamma2 and Gbeta1 protein incubated for 2 mins in presence of TMH5-TAT peptide by Gq protein activation based BRET assay; format: cell-based
Oxytocin receptor [11] = biological target: T1, Oxytocin receptor; assay: Agonist activity at human oxytocin receptor high affinity site expressed in HEK293 cells coexpressing Rluc8-tagged Galphaq, N-terminal GFP-tagged Ggamma2 and Gbeta1 protein incubated for 2 mins by Gq protein activation based BRET assay; format: cell-based
[12] = biological target: T2, Oxytocin receptor (Homo sapiens); assay: (§5) Agonist activity at human oxytocin receptor expressed in HEK293 cells coexpressing Rluc8-tagged Galphaq, N-terminal GFP-tagged Ggamma2 and Gbeta1 protein incubated for 2 mins in presence of TMH5-TAT peptide by Gq protein activation based BRET assay; format: cell-based; parameters: unit not given here
Oxytocin receptor [13] = biological target: T1, Oxytocin receptor; assay: as §4; format: cell-based
Danio rerio = assay: Effect on social behavior in zebra fish assessed as increase in time spent swimming parallel to nacre mutant fish over time spent shoaling close to wild type fish at 0.75 ng/kg, im; format: functional, organism-based
Oxytocin receptor [14] = biological target: T5, Oxytocin receptor; assay: Agonist activity at human oxytocin receptor C47A mutant high affinity site expressed in HEK293 cells coexpressing Rluc8-tagged Galphaq, N-terminal GFP-tagged Ggamma2 and Gbeta1 protein incubated for 2 mins by Gq protein activation based BRET assay; format: cell-based
Oxytocin receptor [15] = biological target: T5, Oxytocin receptor; assay: Agonist activity at human oxytocin receptor C47A mutant low affinity site expressed in HEK293 cells coexpressing Rluc8-tagged Galphaq, N-terminal GFP-tagged Ggamma2 and Gbeta1 protein incubated for 2 mins by Gq protein activation based BRET assay; format: cell-based
Oxytocin receptor [16] = biological target: T1, Oxytocin receptor; assay: as §5; format: cell-based

T5 sequence (P30559 whole entry C47A): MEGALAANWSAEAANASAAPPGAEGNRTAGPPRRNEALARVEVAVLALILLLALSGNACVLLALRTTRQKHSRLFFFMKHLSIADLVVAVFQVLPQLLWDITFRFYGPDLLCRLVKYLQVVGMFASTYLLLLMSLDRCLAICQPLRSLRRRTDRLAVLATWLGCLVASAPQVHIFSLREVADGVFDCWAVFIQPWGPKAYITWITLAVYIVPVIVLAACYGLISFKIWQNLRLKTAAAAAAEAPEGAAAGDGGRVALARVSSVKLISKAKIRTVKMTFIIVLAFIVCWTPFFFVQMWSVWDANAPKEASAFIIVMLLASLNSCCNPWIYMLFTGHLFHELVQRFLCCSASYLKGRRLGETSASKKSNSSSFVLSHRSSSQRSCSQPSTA
Chain of Oxytocin receptor (Homo sapiens, UniProt P30559, C47A/V43A) (P30559 whole entry V43A/C47A): as the sequence (P30559 whole entry C47A) above, with V43A counted along it

EC50 (Oxytocin receptor [1]) | Emax [2] | Emax [3] | EC50 (Oxytocin receptor [4]) | Emax [5] | EC50 (Oxytocin receptor [6]) | Emax [7] | EC50 (Oxytocin receptor [8]) | EC50 (Oxytocin receptor [9]) | EC50 (Oxytocin receptor [10]) | EC50 (Oxytocin receptor [11]) | Emax [12] | EC50 (Oxytocin receptor [13]) | EC50 (Oxytocin receptor [14]) | EC50 (Oxytocin receptor [15]) | EC50 (Oxytocin receptor [16]) | Structure (SMILES) | Activity (Danio rerio)
17.3 nM | -0.15 | -0.14 | 40.5 nM | -0.14 | 21.7 nM | -0.1 | 11 nM | 13 nM | 2.57 pM | 2.8 pM | -0.17 |  |  |  |  | CC[C@H](C)[C@@H]1NC(=O)[C@H](Cc2ccc(O)cc2)NC(=O)CCSSC[C@@H](C(=O)N2CCC[C@H]2C(=O)N[C@@H](CCCCNC(=O)CCCCCCCCC(=O)NCCCC[C@H](NC(=O)[C@@H]2CCCN2C(=O)[C@@H]2CSSCCC(=O)N[C@@H](Cc3ccc(O)cc3)C(=O)N[C@@H]([C@@H](C)CC)C(=O)N[C@@H](CCC(N)=O)C(=O)N[C@@H](CC(N)=O)C(=O)N2)C(=O)NCC(N)=O)C(=O)NCC(N)=O)NC(=O)[C@H](CC(N)=O)NC(=O)[C@H](CCC(N)=O)NC1=O (I: [Mpa]YIQNCPKG-NH2 / II: [Mpa]YIQNCPKG-NH2; disulfide I:1-I:6, II:1-II:6; linker I:8-II:8 via Sebacoyl) | 
 |  | -0.14 | 25.6 nM | -0.13 | 21.9 nM | -0.13 |  |  |  |  |  | 11.8 nM |  |  |  | CC[C@H](C)[C@@H]1NC(=O)[C@H](Cc2ccc(O)cc2)NC(=O)CCSSC[C@@H](C(=O)N2CCC[C@H]2C(=O)N[C@@H](CCCCNC(=O)CCCCC(=O)NCCCC[C@H](NC(=O)[C@@H]2CCCN2C(=O)[C@@H]2CSSCCC(=O)N[C@@H](Cc3ccc(O)cc3)C(=O)N[C@@H]([C@@H](C)CC)C(=O)N[C@@H](CCC(N)=O)C(=O)N[C@@H](CC(N)=O)C(=O)N2)C(=O)NCC(N)=O)C(=O)NCC(N)=O)NC(=O)[C@H](CC(N)=O)NC(=O)[C@H](CCC(N)=O)NC1=O (I: [Mpa]YIQNCPKG-NH2 / II: [Mpa]YIQNCPKG-NH2; disulfide I:1-I:6, II:1-II:6; linker I:8-II:8 via Adipoyl) | 
 |  |  |  |  |  |  |  |  |  |  |  |  |  |  |  | CC[C@H](C)[C@@H]1NC(=O)[C@H](Cc2ccc(O)cc2)NC(=O)[C@@H](N)CSSC[C@@H](C(=O)N2CCC[C@H]2C(=O)N[C@H](C(=O)NCC(N)=O)[C@@H](C)CC)NC(=O)[C@H](CC(N)=O)NC(=O)[C@H](CO)NC1=O (H-CYISNCPIG-NH2; disulfide 1-6) | Active
37.9 nM | -0.16 | -0.08 | 182 nM | -0.13 |  | -0.11 |  |  |  |  | -0.15 | 20.1 nM | 1.2 pM | 135 nM | 14 nM | CC[C@H](C)[C@@H]1NC(=O)[C@H](Cc2ccc(O)cc2)NC(=O)CCSSC[C@@H](C(=O)N2CCC[C@H]2C(=O)N[C@@H](CCCCNC(=O)CCCCCCCCCCC(=O)NCCCC[C@H](NC(=O)[C@@H]2CCCN2C(=O)[C@@H]2CSSCCC(=O)N[C@@H](Cc3ccc(O)cc3)C(=O)N[C@@H]([C@@H](C)CC)C(=O)N[C@@H](CCC(N)=O)C(=O)N[C@@H](CC(N)=O)C(=O)N2)C(=O)NCC(N)=O)C(=O)NCC(N)=O)NC(=O)[C@H](CC(N)=O)NC(=O)[C@H](CCC(N)=O)NC1=O (I: [Mpa]YIQNCPKG-NH2 / II: [Mpa]YIQNCPKG-NH2; disulfide I:1-I:6, II:1-II:6; linker I:8-II:8 via C12 diacid) | 
